Measured values: paper PMC7576996, “Antiparasitic Behavior of Trifluoromethylated Pyrazole 2-Amino-1,3,4-thiadiazole Hybrids and Their Analogues: Synthesis and Structure-Activity Relationship” (Frontiers in Pharmacology, 2020)

How the values were obtained:
[1] = Cytotoxicity assay in J774A1 macrophages (MTT, 48 h); assay type: cell-based; conditions: mouse, pH 7.2, J774A1, 50% inhibition of growth
Procedure: (§1) All the novel trifluoromethylated pyrazoles derivatives 2a–f, 3a–f, and 4a–f were evaluated against the promastigote form of L. amazonensis and the epimastigote form of T. cruzi. The results are reported as the concentration causing a 50% inhibition in cell growth (IC50). Additionally, the toxicity of compounds was evaluated against two different cell lines: epithelial cell LLCMK2 and macrophages J774A1. The antiproliferative and cytotoxic activities are shown in Table 2 , as well as the calculated selectivity index (SI).
(§2) 2.4. Antiproliferative activity […]
(§3) Cytotoxicity activity was determined in LLCMK2 (epithelial cells of kidney of Macaca
(§4) mulatta) cells and J774A1 macrophages. LLCMK2 (epithelial cells of kidney of Macaca mulatta) cells
(§5) were cultured in Dulbecco’s modified Eagle’s medium (DMEM, pH 7.2) supplemented with 10% FBS
(§6) at 37 °C in a 5% CO2 atmosphere. J774A1 macrophages were cultured in RPMI-1640 (pH 7.2) medium
(§7) supplemented with 10% FBS at 37 °C in a 5% CO2 atmosphere.
(§8) 2.4.2. Dilution of compounds
(§9) Stock solutions of the compounds were prepared in DMSO and then diluted in the respective
(§10) medium. The groups (controls and treated) were tested with DMSO concentrations below 1%, with
(§11) 2.4.3. Antiproliferative assay […]
(§12) 2.4.4. Cytotoxicity assay
(§13) LLCMK2 cells (2.5 × 10^5 cells/mL) suspension was prepared in DMEM medium supplemented
(§14) with 10% FBS and added to 96-well plates. Then, the plates were incubated at 37 °C in a
(§15) CO2 atmosphere for 24h to obtain confluent cell growth. After incubation, cells were treated or not
(§16) with different concentrations of compounds diluted in DMEM for 72 h. Macrophage (5 × 10^5 cells/mL)
(§17) suspension was prepared in RPMI-1640 medium supplemented with 10% FBS and added to 96-well
(§18) plates. Then, the plates were incubated at 37 °C in a CO2 atmosphere for 24h to obtain confluent cell
(§19) growth. After incubation, cells were treated or not with different concentrations of compounds diluted
(§20) in RPMI-1640 for 48h. After treatment, medium was removed and cells were incubated with MTT (2
(§21) mg/mL) for 4h. Then, DMSO was added for solubilization of the formazan and analyzed with a reading
(§22) microplate reader (BIO-TEK PowerWave XS spectrophotometer) at 392 nm. The percentage of viable
(§23) cells was calculated in relation to the control to determine the cytotoxic concentration to 50% of the […]

[2] = Cytotoxicity assay in LLCMK2 epithelial cells (MTT, 72 h); assay type: cell-based; conditions: Macaca mulatta, LLCMK2 kidney epithelial cells, pH 7.2, LLCMK2, 50% inhibition of growth
Procedure: as §1, §2, §3, §4, §5, §6, §7, §8, §9, §10, §11, §12, §13, §14, §15, §16, §17, §18, §19, §20, §21, §22, §23

[3] = test system: promastigote form of Leishmania amazonensis; test: Antiproliferative assay, promastigote form of Leishmania amazonensis (XTT, 72 h); assay type: cell-based; conditions: for SI L-M, selectivity index (Macrophages CC50/L. amazonensis IC50): J774A1 vs promastigotes; for SI L-E, selectivity index (Epithelial CC50/L. amazonensis IC50): LLCMK2 vs promastigotes; for IC50: Leishmania amazonensis, promastigote form, 72 h, mean ± standard deviation, read-out: L. amazonensis IC50
Procedure: as §1
(§24) 2.4. Antiproliferative activity
(§25) Promastigotes forms of Leishmania amazonensis (strain WHOM/ BR/75/JOSEFA) were
(§26) cultured in Warren medium (brain heart infusion, hemin, and folic acid; pH 7.4) supplemented with
(§27) 10% fetal bovine serum (FBS) at 25 °C. Epimastigote forms of Trypanosoma cruzi (Y strain) were
(§28) cultured in LIT medium (liver infusion tryptose; hemim, and folic acid; pH 7.4) supplemented with
as §3, §4, §5, §6, §7, §8, §9, §10
(§29) 2.4.3. Antiproliferative assay
(§30) Promastigote forms (1 × 10^6 parasites/mL) were cultured in 96-well plates in the presence and
(§31) absence of different concentrations of compounds diluted in Warren medium supplemented with 10%
(§32) FBS and incubated for 72h. Epimastigote forms (1 × 10^6 parasites/mL) were cultured in 96 -well plates
(§33) in the presence and absence of different concentrations of compounds diluted in LIT medium
(§34) supplemented with 10% FBS and incubated for 96h. After treatment, the parasites were incu bated with
(§35) a solution of 2,3 -bis (2 -methoxy -4-nitro -5-sulfophenyl) -2H-tetrazolium -5-carboxanilide (XTT; 0.5
(§36) mg/mL) and phenazine methanesulfonate activator (PMS; 0.06 mg/mL) in PBS for 4h. Then, the
(§37) absorbance was read in a microplate reader (Bio Tek - Power Wave XS) at 450 nm. The percentage of
(§38) viable parasites was calculated in relation to the control in order to determine the concentration that
(§39) inhibits 50% of the protozoa (IC 50).
as §12, §13, §14, §15, §16, §17, §18, §19, §20, §21

[4] = test system: epimastigote form of Trypanosoma cruzi; test: Antiproliferative assay, epimastigote form of Trypanosoma cruzi (XTT, 96 h); assay type: cell-based; conditions: for SI T-M, selectivity index (Macrophages CC50/T. cruzi IC50): J774A1 vs epimastigotes; for SI T-E, selectivity index (Epithelial CC50/T. cruzi IC50): LLCMK2 vs epimastigotes; for IC50: Trypanosoma cruzi, epimastigote form, 96 h, mean ± standard deviation, read-out: T. cruzi IC50
Procedure: as §1, §24, §25, §26, §27, §28, §3, §4, §5, §6, §7, §8, §9, §10, §29, §30, §31, §32, §33, §34, §35, §36, §37, §38, §39, §12, §13, §14, §15, §16, §17, §18, §19, §20, §21

| SMILES | CC50 at 48 h [1] [µM] | CC50 at 72 h [2] [µM] | SI L-M, selectivity index (Macrophages CC50/L. amazonensis IC50) [3] | SI L-E, selectivity index (Epithelial CC50/L. amazonensis IC50) [3] | IC50 [3] [µM] | SI T-M, selectivity index (Macrophages CC50/T. cruzi IC50) [4] | SI T-E, selectivity index (Epithelial CC50/T. cruzi IC50) [4] | IC50 [4] [µM] | melting point [°C] |
| --- | --- | --- | --- | --- | --- | --- | --- | --- | --- |
| NC(=S)NN=Cc1c(C(F)(F)F)nn(-c2ccccc2)c1-c1ccc([N+](=O)[O-])cc1 [2a, 4-[(2-carbamothioyl-hydrazinylidene)methyl]-3-trifluoromethyl-5-(4-nitrophenyl)-1-phenyl-1H-pyrazole] | 243 ± 3.6 | 303 ± 5.8 | 9.10 | 11.33 | 26.7 ± 1.4 | 5.32 | 6.62 | 45.7 ± 5 | 226.5 |
| NC(=S)NN=Cc1c(C(F)(F)F)nn(-c2ccccc2)c1-c1ccc(F)cc1 [2b, 4-[(2-carbamothioyl-hydrazinylidene)methyl]-3-trifluoromethyl-5-(4-fluorophenyl)-1-phenyl-1H-pyrazole] | 203 ± 5.9 | 345.7 ± 2.6 | 4.09 | 6.97 | 49.6 ± 3.8 | 2.92 | 4.99 | 69.3 ± 2.9 | 221.18 |
| NC(=S)NN=Cc1c(C(F)(F)F)nn(-c2ccccc2)c1-c1ccc(Cl)cc1 [2c, 4-[(2-carbamothioyl-hydrazinylidene)methyl]-5-(4-chlorophenyl)-3-trifluoromethyl-1-phenyl-1H-pyrazole] | 402 ± 8.3 | 377 ± 5 | 9.02 | 8.45 | 44.6 ± 6.2 | 8.17 | 7.66 | 49.2 ± 3.1 | 225.37 |
| NC(=S)NN=Cc1c(C(F)(F)F)nn(-c2ccccc2)c1-c1ccc(Br)cc1 [2d, 5-(4-bromophenyl)-4-[(2-carbamothioyl-hydrazinylidene)methyl]-3-trifluoromethyl-1-phenyl-1H-pyrazole] | 170 ± 7.2 | 148 ± 6.9 | 8.98 | 7.85 | 18.9 ± 1.1 | 5.60 | 4.89 | 30.3 ± 5.2 |  |
| NC(=S)NN=Cc1c(C(F)(F)F)nn(-c2ccccc2)c1-c1ccccc1 [2e, 4-[(2-carbamothioyl-hydrazinylidene)methyl]-3-trifluoromethyl-1,5-diphenyl-1H-pyrazole] | 400 ± 6.6 | 394 ± 7.1 | 6.47 | 6.39 | 61.7 ± 2.9 | 4.81 | 4.75 | 83.1 ± 5.3 | 211.27 |
| COc1ccc(-c2c(C=NNC(N)=S)c(C(F)(F)F)nn2-c2ccccc2)cc1 [2f, 4-[(2-carbamothioyl-hydrazinylidene)methyl]-3-trifluoromethyl-5-(4-methoxyphenyl)-1-phenyl-1H-pyrazole] | 180 ± 4.7 | 155 ± 2.6 | 8.04 | 6.91 | 22.4 ± 3 | 6.06 | 5.21 | 29.7 ± 2.6 | 212.65 |
| CSC(N)=NN=Cc1c(C(F)(F)F)nn(-c2ccccc2)c1-c1ccc([N+](=O)[O-])cc1 [3a] | 221 ± 3.1 | 176 ± 5.9 | 12.10 | 9.64 | 18.3 ± 2.4 | 9.19 | 7.32 | 24.1 ± 0.8 | 190.7 |
| CSC(N)=NN=Cc1c(C(F)(F)F)nn(-c2ccccc2)c1-c1ccc(F)cc1 [3b] | 202 ± 3.4 | 119 ± 3 | 5.90 | 3.48 | 34.3 ± 4.7 | 5.07 | 2.99 | 39.9 ± 3.2 | 145.5 |
| CSC(N)=NN=Cc1c(C(F)(F)F)nn(-c2ccccc2)c1-c1ccc(Cl)cc1 [3c] | 301 ± 3.9 | 297 ± 6.1 | 9.80 | 9.68 | 30.7 ± 2.2 | 8.09 | 7.99 | 37.2 ± 4.8 | 188.5 |
| CSC(N)=NN=Cc1c(C(F)(F)F)nn(-c2ccccc2)c1-c1ccc(Br)cc1 [3d] | 147 ± 3.6 | 114 ± 3.8 | 10.55 | 8.20 | 13.9 ± 0.6 | 5.71 | 4.44 | 25.7 ± 2.5 |  |
| CSC(N)=NN=Cc1c(C(F)(F)F)nn(-c2ccccc2)c1-c1ccccc1 [3e] | 326 ± 4.5 | 202 ± 6.2 | 7.30 | 4.53 | 44.7 ± 5 | 5.23 | 3.25 | 62.4 ± 3.8 | 165.65 |
| COc1ccc(-c2c(C=NN=C(N)SC)c(C(F)(F)F)nn2-c2ccccc2)cc1 [3f] | 123 ± 3.1 | 101 ± 2.4 | 8.65 | 7.13 | 14.2 ± 1.1 | 6.43 | 5.30 | 19.1 ± 0.9 |  |
| Nc1nnc(-c2c(C(F)(F)F)nn(-c3ccccc3)c2-c2ccc([N+](=O)[O-])cc2)s1 [4a, 4-[(2-amino)-1,3,4-thiadiazo-5-yl]-3-trifluoromethyl-5-(4-nitrophenyl)-1-phenyl-1H-pyrazole] | 285 ± 5.6 | 211 ± 3.1 | 14.56 | 10.78 | 19.6 ± 1.5 | 9.84 | 7.29 | 29 ± 2.7 | 236.7 |
| Nc1nnc(-c2c(C(F)(F)F)nn(-c3ccccc3)c2-c2ccccc2)s1 [4e, 4-[(2-amino)-1,3,4-thiadiazo-5-yl]-3-trifluoromethyl-1,5-diphenyl-1H-pyrazole] | 340 ± 5.2 | 264 ± 3.2 | 6.49 | 5.04 | 52.4 ± 3.5 | 5.18 | 4.03 | 65.6 ± 2.9 |  |
